Patent US10272095B2 (GlaxoSmithKline Intellectual Property Development Limited, priority 2015, dated 2019)
Where a name gives a salt, the structure may show the parent alone.

system: NQO1 specific enzyme activity in BEAS-2B cells; experiment: BEAS-2B NQO1 MTT assay; assay type: cell-based; details: Homo sapiens, BEAS-2B, 48 h, NQO1 specific enzyme activity induction in BEAS-2B cells, 48 hours; read-out: EC50
Excerpt: NAD(P)H:quinone oxidoreductase 1 (NQO1), also called DT diaphorase, is a homodimeric FAD-containing enzyme that catalyzes obligatory NAD(P)H-dependent two-electron reductions of quinones and protects cells against the toxic and neoplastic effects of free radicals and reactive oxygen species arising from one-electron reductions. The transcription of NQO1 is finely regulated by NRF2, and thus NQO1 activity is a good marker for NRF2 activation. On day one, frozen BEAS-2B cells (ATCC) are thawed in a water bath, counted, and re-suspended at a concentration of 250,000 cells/mL. Fifty microliters of cells are plated in 384 well black clear-bottomed plates. Plates are incubated at 37° C., 5% CO2 overnight. On day two, plates are centrifuged and 50 nL of compound or controls are added to the cells. Plates are then incubated at 37° C., 5% CO2 for 48 hours. On day four, medium is aspirated from the plate and crude cell lysates are made by adding 13 uL of 1× Cell Signaling Technologies lysis buffer with 1 Complete, Mini, EDTA-free Protease Inhibitor Tablet (Roche) for each 10 mL of lysis buffer. After lysis plates are incubated for 20 minutes at room temperature. Two microliters of lysate are removed for use in Cell Titer Glo assay (Promega) and MTT cocktail is prepared (Prochaska et. al. 1998) for measurement of NQO1 activity. Fifty microliters of MTT cocktail is added to each well, plate is centrifuged, and analyzed on an Envision plate reader (Perkin Elmer) using Absorbance 570 nm label for 30 minutes. Product formation is measured kinetically and the pEC50 of NQO1 specific activity induction is calculated by plotting the change in absorbance (Delta OD/min) versus the log of compound concentration followed by 3-parameter fitting.
EC50s<1 nM (+++++), EC50s 10 nM-1 nM (++++), EC50s 10-100 nM (+++), EC50s 100 nM-1 uM (++), EC50s 1 uM-10 uM (+), EC50s>10 uM (−), or were not determined (ND).

SMILES | EC50
Cc1c([C@H](c2ccc3c(c2)[C@H](N2Cc4ncccc4OC(C)(C)C2)CC3)C(C)(C)C(=O)O)ccc2c1nnn2C (racemic) [Example 67, rac-(R)-3-(1,4-Dimethyl-1H-benzo[d][1,2,3]triazol-5-yl)-3-(rac-(S)-3-(2,2-dimethyl-2,3-dihydropyrido[2,34][1,4]oxazepin-4(5H)-yl)-2,3-dihydro-1H-inden-5-yl)-2,2-dimethylpropanoic Acid, Trifluoroacetic Acid Salt] | < 1 nM
Cc1c([C@H](c2ccc3c(c2)[C@@H](N2Cc4ncccc4OC(C)(C)C2)CC3)C(C)(C)C(=O)O)ccc2c1nnn2C (racemic) [Example 68, rac-(R)-3-(1,4-Dimethyl-1H-benzo[d][1,2,3]triazol-5-yl)-3-(rac-(R)-3-(2,2-dimethyl-2,3-dihydropyrido[2,3-f][1,4]oxazepin-4(5H)-yl)-2,3-dihydro-1H-inden-5-yl)-2,2-dimethylpropanoic acid] | 10 to 100 nM
Cc1c([C@H](c2ccc3c(c2)[C@@H](N2Cc4ccncc4OC(C)(C)C2)CC3)C(C)(C)C(=O)O)ccc2c1nnn2C (racemic) [Example 69, rac-(R)-3-(1,4--1H-benzo[d][1,2,3]triazol-5-yl)-3-(rac-(R)-3-(2,2-dimethyl-2,3-dihydropyrido[4,3-f][1,4]oxazepin-4(5H)-yl)-2,3-dihydro-1H-inden-5-yl)-2,2-dimethylpropanoic acid, Trifluoroacetic acid salt] | < 1 nM
Cc1c([C@H](c2ccc3c(c2)[C@H](N2Cc4ccncc4OC(C)(C)C2)CC3)C(C)(C)C(=O)O)ccc2c1nnn2C (racemic) [Example 70, rac-(R)-3-(1,4-Dimethyl-1H-benzo[d][1,2,3]triazol-5-yl)-3-(rac-(S)-3-(2,2-dimethyl-2,3-dihydropyrido[4,3-f][1,4]oxazepin-4(5H)-yl)-2,3-dihydro-1H-inden-5-yl)-2,2-dimethylpropanoic acid, Trifluoroacetic acid salt] | 1 to 10 nM
CC[C@@H]1CN([C@@H]2CCc3ccc([C@@H](c4ccc5c(nnn5C)c4C)C(C)(C)C(=O)O)cc32)Cc2cnccc2O1 (relative stereo) [Example 71, rel-(S)-3-(1,4-Dimethyl-1H-benzo[d][1,2,3]triazol-5-yl)-3-(rel-(R)-3-((R)-2-ethyl-2,3-dihydropyrido[3,4-f][1,4]oxazepin-4(5H)-yl)-2,3-dihydro-1H-inden-5-yl)-2,2-dimethylpropanoic acid] | 1 to 10 nM
CC[C@@H]1CN([C@@H]2CCc3ccc(C(c4ccc5c(nnn5C)c4C)C(C)(C)C(=O)O)cc32)Cc2cnccc2O1 (relative stereo) [Example 75, rel-(S)-3-(1,4-Dimethyl-1H-benzo[d][1,2,3]triazol-5-yl)-3-(rel-(R)-3-((R)-2-ethyl-2,3-dihydropyrido[3,4-f][1,4]oxazepin-4(5H)-yl)-2,3-dihydro-1H-inden-5-yl)-2,2-dimethylpropanoic acid] | 10 to 100 nM
CC[C@@H]1CN([C@H]2CCc3ccc([C@H](c4ccc5c(nnn5C)c4C)C(C)(C)C(=O)O)cc32)Cc2cnccc2O1 (relative stereo) [Example 76, rel-(R)-3-(1,4-Dimethyl-1H-benzo[d][1,2,3]triazol-5-yl)-3-(rel-(S)-3-((R)-2-ethyl-2,3-dihydropyrido[3,4-f][1,4]oxazepin-4(5H)-yl)-2,3-dihydro-1H-inden-5-yl)-2,2-dimethylpropanoic acid] | 1000 to 10000 nM
CC[C@@H]1CN([C@H]2CCc3ccc([C@H](CC(=O)O)c4ccc5c(nnn5C)c4C)cc32)Cc2ccccc2O1 (relative stereo) [Example 81, rel-(S)-3-(1,4-Dimethyl-1H-benzo[d][1,2,3]triazol-5-yl)-3-(rel-(S)-3-((R)-2-ethyl-2,3-dihydrobenzo[f][1,4]oxazepin-4(5H)-yl)-2,3-dihydro-1H-inden-5-yl)propanoic Acid] | 10 to 100 nM
CC[C@@H]1CN([C@@H]2CCc3ccc([C@H](CC(=O)O)c4ccc5c(nnn5C)c4C)cc32)Cc2ccccc2O1 (relative stereo) [Example 82, rel-(S)-3-(1,4-Dimethyl-1H-benzo[d][1,2,3]triazol-5-yl)-3-(rel-(R)-3-((R)-2-ethyl-2,3-dihydrobenzo[f][1,4]oxazepin-4(5H)-yl)-2,3-dihydro-1H-inden-5-yl)propanoic acid] | 10 to 100 nM
CC[C@@H]1CN([C@@H]2CCc3ccc(C(CC(=O)O)c4ccc5c(nnn5C)c4C)cc32)Cc2ccccc2O1 (relative stereo) [Example 84, rel-(R)-3-(1,4-Dimethyl-1H-benzo[d][1,2,3]triazol-5-yl)-3-(rel-(R)-3-((R)-2-ethyl-2,3-dihydrobenzo[f][1,4]oxazepin-4(5H)-yl)-2,3-dihydro-1H-inden-5-yl)propanoic acid] | 1000 to 10000 nM
Cc1c([C@@H](CC(=O)O)c2ccc3c(c2)[C@H](N2Cc4ccccc4OC(C)(C)C2)CC3)ccc2c1nnn2C (single isomer, unassigned) [Example 41, 3-(1,4-Dimethyl-1H-benzo[d][1,2,3]triazol-5-yl)-3-(3-(2,2-dimethyl-2,3-dihydrobenzo[f][1,4]oxazepin-4(5H)-yl)-2,3-dihydro-1H-inden-5-yl)propanoic Acid, Formic Acid Salt] | 1 to 10 nM
Cc1c([C@H](c2ccc3c(c2)[C@H](N2Cc4ccccc4OC(C)(C)C2)CC3)C(C)(C)C(=O)O)ccc2c1nnn2C (stereo in doubt) [Example 77, rel-(S)-3-(1,4-Dimethyl-1H-benzo[d][1,2,3]triazol-5-yl)-3-(rel-(R)-3-(2,2-dimethyl-2,3-dihydrobenzo[f][1,4]oxazepin-4(5H)-yl)-2,3-dihydro-1H-inden-5-yl)-2,2-dimethylpropanoic Acid] | < 1 nM
Cc1c([C@H](c2ccc3c(c2)[C@@H](N2Cc4ccccc4OC(C)(C)C2)CC3)C(C)(C)C(=O)O)ccc2c1nnn2C (stereo in doubt) [Example 78, rel-(S)-3-(1,4-Dimethyl-1H-benzo[d][1,2,3]triazol-5-yl)-3-(rel-(S)-3-(2,2-dimethyl-2,3-dihydrobenzo[f][1,4]oxazepin-4(5H)-yl)-2,3-dihydro-1H-inden-5-yl)-2,2-dimethylpropanoic acid] | 1 to 10 nM
Cc1c([C@@H](c2ccc3c(c2)[C@H](N2Cc4ccccc4OC(C)(C)C2)CC3)C(C)(C)C(=O)O)ccc2c1nnn2C (stereo in doubt) [Example 79, rel-(R)-3-(1,4-Dimethyl-1H-benzo[d][1,2,3]triazol-5-yl)-3-(rel-(R)-3(2,2-dimethyl-2,3-dihydrobenzo[f][1,4]oxazepin-4(5H)-yl)-2,3-dihydro-1H-inden-5-yl)-2,2-dimethylpropanoic acid] | 1 to 10 nM
Cc1c([C@@H](c2ccc3c(c2)[C@@H](N2Cc4ccccc4OC(C)(C)C2)CC3)C(C)(C)C(=O)O)ccc2c1nnn2C (stereo in doubt) [Example 80, rel-(R)-3-(1,4-Dimethyl-1H-benzo[d][1,2,3]triazol-5-yl)-3-(rel-(S)-3-(2,2-dimethyl-2,3-dihydrobenzo[f][1,4]oxazepin-4(5H)-yl)-2,3-dihydro-1H-inden-5-yl)-2,2-dimethylpropanoic acid] | 100 to 1000 nM
Cc1c(C(CC(=O)O)c2ccc3c(c2)[C@@H]2[C@@H](CC(=O)N2CC2CCCCC2)C3)ccc2c1nnn2C (stereo partly drawn) [Example 1, 3-[(3aR,8bS)-1-(cyclohexylmethyl)-2-oxo-1H,2H,3H,3aH,4H,8bH-indeno[1,2-b]pyrrol-7-yl]-3-(1,4-dimethyl-1H-1,2,3-benzotriazol-5-yl)propanoic Acid] | 100 to 1000 nM
CCC1CCC(CN2C(=O)CC3Cc4ccc(C(CC(=O)O)c5ccc6c(nnn6C)c5C)cc4C32)CC1 (stereo not shown) [Example 2, 3-(1,4-Dimethyl-1H-1,2,3-benzotriazol-5-yl)-3-{1-[(4-ethylcyclohexyl)methyl]-2-oxo-1H,2H,3H,3aH,4H,8bH-indeno[1,2-b]pyrrol-7-yl}propanoic Acid] | 10 to 100 nM

same assay, conditions: NQO1 specific enzyme activity induction in BEAS-2B cells, 48 hours; read-out: EC50

SMILES | EC50
CC[C@@H]1CN([C@H]2CCc3ccc([C@@H](c4ccc5c(nnn5C)c4C)C(C)(C)C(=O)O)cc32)Cc2cnccc2O1 (relative stereo) [Example 72, rel-(S)-3-(1,4-Dimethyl-1H-benzo[d][1,2,3]triazol-5-yl)-3-(rel-(S)-3-((R)-2-ethyl-2,3-dihydropyrido[3,4-f][1,4]oxazepin-4(5H)-yl)-2,3-dihydro-1H-inden-5-yl)-2,2-dimethylpropanoic acid] | 1 to 10 nM
CC[C@@H]1CN([C@H]2CCc3ccc([C@@H](c4ccc5c(nnn5C)c4C)C(C)(C)C(=O)O)cc32)Cc2cnccc2O1 (relative stereo) [Example 85, rel-(S)-3-(1,4-Dimethyl-1H-benzo[d][1,2,3]triazol-5-yl)-3-(rel-(S)-3-((R)-2-ethyl-2,3-dihydropyrido[3,4-f][1,4]oxazepin-4(5H)-yl)-2,3-dihydro-1H-inden-5-yl)-2,2-dimethylpropanoic Acid] | 10 to 100 nM
